Measurements from ChEMBL document CHEMBL6134785, “New ATP-competitive inhibitors of E. coli GyrB obtained from the mapping of the hydrophobic floor at the binding site: synthesis and biological evaluation” (RSC Med Chem, 2024).

The compounds below were run against DNA gyrase (Escherichia coli, UniProt P0AES4+P0AES6) (assay: Inhibition of Escherichia coli DNA gyrase supercoiling activity incubated for 30 mins in presence of spermidine/ATP by fluorescence based analysis).
Assay type: protein-complex assay

IC50 | Structure (SMILES)
19 nM | O=C(O)C(=O)Nc1ccc2nc(N(Cc3ccccc3)C(=O)c3cc(Br)c(Br)[nH]3)sc2c1
96 nM | O=C(O)C(=O)Nc1ccc2nc(N(Cc3cccc(C(=O)O)c3)C(=O)c3cc(Br)c(Br)[nH]3)sc2c1
134 nM | O=C(O)C(=O)Nc1ccc2c(c1)s/c(=N\C(=O)c1cc(Br)c(Br)[nH]1)n2Cc1ccccc1
